The results in this text go back to US4172143A, “2-Methoxy-benzamide derivatives” (priority 1974, dated 1979).

Structures can show the parent of a compound that is named as a salt. Where two headings read alike, the source gives them in different places.

One data set in a line: in vivo. Conditions: for LD50 at 48 h: LD 50 over 48 hours. On the procedure: The compounds were administered in the form of their hydrochlorides or of their methanesulphonates.
The acute toxicity was evaluated in Swiss CDl mice of both sexes, of average weight 20 g. The 50% lethal dose (LD 50) of each product was determined by a graphical method.

Data set [1] relates to stereotypies induced by apomorphine. As to the kind of experiment: Antagonism towards stereotypies induced by apomorphine in rats (method of Janssen). It counts as in vivo, male Sprague-Dawley (Charles River) rats. Conditions: for ED50: Rattus norvegicus, read-out: Antagonism to stereotypies induced by apomorphine in rats, AD 50; for Antagonism to stereotypies induced by apomorphine in rats, AD 50: oral; for antagonism to stereotypies induced in rats by apomorphine: oral administration. The text has this:
(1) Antagonism towards stereotypies induced by apomorphine in male Sprague-Dawley (Charles River) rats of average weight 130 g, in accordance with the method of Janssen and colleagues (Arzneim. Forsch. 1960, 10, 1003).
(§1) In these two tests, the results are expressed by the 50% active doses (AD 50).

Data set [2] is described as follows: Protection against a stress due to an environment and new feedstuffs (method of Stephens). It counts as in vivo, mice. The settings on record: dose producing 40% increase in feedstuff taken, * no activity was observed up to this dose; for ED40: Mus musculus, po, read-out: Protection against stress in mice, AD 40. Here is the method:
(3) Protection against a stress due to an environment and due to new feedstuffs, in male […] (CDl strain, weight about 20 g) in accordance with the method of Stephens (Brit. J. Pharmacol. 1973, 49, 146 P.). The doses (AD 40) which produce a 40% increase in the feedstuff taken were determined.

A short description of data set [3]: Catalepsy-inducing effect in rats (method of Tedeschi). It counts as in vivo, male Sprague-Dawley (Charles River) rats. The settings on record: for TD50: rat, in vivo, ip.
Excerpt: (2) Catalepsy-inducing effect in rats of the same species and of the same weight, in accordance with the method of Tedeschi and colleagues (Arch. Intern. Pharmacodyn. 1959, 122, 129).
as §1

Data set [4] in a line: Neuro-pharmacological tests (overall conclusion). The format is in vivo. The text has this: The neuro-pharmacological activity was studied with the aid of the following three tests: […]
The test system of data set [5] is emetic effect induced by apomorphine. In words: Antagonism towards emetic effect induced by apomorphine in dogs. It counts as in vivo. The settings on record: Canis lupus familiaris, emesis induced by apomorphine, read-out: Antiemetic activity in dogs, AD 50. An excerpt:
Some compounds have also antiemetic activity which was studied with the following test:
(4) Antagonism towards emetic effect induced by apomorphine in dogs (Shallek et al, Arch. Int. Pharmacodyn. 174 (1968) N°. 2, 350-372. Boissier et al, Med. Exp. 6 (1962), 320-326). The results are expressed in active doses 50% (AD 50) and set in Table IX.

The mark [6] stands for this setting: mouse, in vivo, ip, intraperitoneal, mice.
The mark [7] stands for this setting: ip, intraperitoneal, results for hydrochlorides given in weight of base.
Setting [8] is: po, hydrochlorides in weight of base, * = no activity was observed up to this dose.
Where [9] appears, read: hydrochlorides in weight of base, * = no activity was observed up to this dose.

`COc1ccc(S(N)(=O)=O)cc1C(=O)NCC1CCCN1CC1CCCCC1` (stereo not shown) [77.205] displayed a median lethal dose (LD50) at 48 h in “in vivo” (setting [6]) of 360 mg/kg. Also, the ED50 in data set [1] (setting [7]) was 8 mg/kg.

As to `COc1ccc(S(C)(=O)=O)cc1C(=O)NCC1CCCN1Cc1ccc(F)cc1` (stereo not shown) [SL-D.163 (cl)], the LD50 at 48 h in the data set “in vivo” (setting [6]) is 400 mg/kg. Moreover, in data set [1] (setting [7]), the ED50 turned out to be 3 mg/kg.

`COc1ccc(S(C)(=O)=O)cc1C(=O)NCC1CCCN1CC1CC1` (stereo not shown) [77.173] displayed a 50% lethal dose (LD50) at 48 h in “in vivo” (setting [6]) of 235 mg/kg. For the same molecule, the ED50 in data set [1] (setting [7]) is 1.5 mg/kg.

The molecule `COc1ccc(Cl)cc1C(=O)NCC1CCCN1Cc1ccc(F)cc1` (stereo not shown) [SL-D.165 (cl), N-[(1-p-fluorobenzyl-pyrrolidinyl-2)-methyl]-2-methoxy-5-chloro-benzamide] came in with an LD50 at 48 h in “in vivo” (setting [6]) of 275 mg/kg. In addition, the ED40 in data set [2] stood at 30 mg/kg. In addition, the ED50 in data set [1] (setting [7]) was 1.5 mg/kg.

`COc1ccc(S(N)(=O)=O)cc1C(=O)NCC1CCCN1Cc1ccccc1F` (stereo not shown) [SL-D.192 (cl)] gave an LD50 at 48 h in the data set “in vivo” (setting [6]) greater than 2000 mg/kg. Also, in data set [2], the ED40 is 30 mg/kg.

In “in vivo” (setting [6]), `COc1ccc(S(N)(=O)=O)cc1C(=O)NCC1CCCN1Cc1ccc(F)cc1` (racemic) [SL-C.205 (racemic) (cl), N-[(1-p-fluorobenzyl-pyrrolidinyl-2)-methyl]-2-methoxy-5-sulphamoyl-benzamide] yielded a 50% lethal dose (LD50) at 48 h of 750 mg/kg. The molecule further registered an LD50 at 168 h in the data set “in vivo” (mouse, in vivo, po, LD 50, oral, mice, 7 days) of 3000 mg/kg. In data set [3], this molecule gave a TD50 greater than 480 mg/kg. In addition, the ED50 in data set [1] (setting [7]) is 30 mg/kg; in data set [1] (setting [8]), 85 mg/kg.

Turning to `COc1ccc(S(N)(=O)=O)cc1C(=O)NCC1CCCN1Cc1ccc(F)cc1` (single isomer, unassigned) [SL-C.205 d (ms), N-[(1-p-fluorobenzyl-pyrrolidinyl-2)-methyl]-2-methoxy-5-sulphamoyl-benzamide], the “LD 50 over 48 hours” value in “in vivo” (mouse, in vivo, iv) turned out to be 160 mg/kg. In addition, the “activity relative to the racemic compound” value in data set [4] (depending on the chosen method of evaluation) is 1.5 times or twice. For the same molecule, the “Protection against stress in mice, AD 40” value in data set [2] (oral) was found to be 30 mg/kg. Besides, the “Antagonism to stereotypies induced by apomorphine in rats, AD 50” value (shortened to “Antagonism to stereotypies induced … AD 50”) in data set [1] (setting [9]) was found to be 50 mg/kg.

`CCN1CCCC1CNC(=O)c1cc(S(N)(=O)=O)ccc1OC` (stereo not shown) [Sulpiride (cl), N-[(1-ethylpyrrolidinyl-2)-methyl]-2-methoxy-5-sulphamoyl-benzamide hydrochloride, reference compound] yielded a TD50 in data set [3] greater than 100 mg/kg. Besides, the ED50 in data set [1] (setting [7]) was 60 mg/kg; in data set [1] (setting [8]), greater than 600 mg/kg. Further, in data set [1], the “antagonism to stereotypies induced in rats by apomorphine” value was “inactive”.

With `COc1ccc(S(N)(=O)=O)cc1C(=O)NCC1CCCN1C(c1ccccc1)c1ccccc1` (stereo not shown) [SL-D.090 (cl)], the LD50 at 48 h in “in vivo” (setting [6]) is greater than 1500 mg/kg.

Molecule `CCS(=O)(=O)c1ccc(OC)c(C(=O)NCC2CCCN2CC2CC2)c1` (stereo not shown) [77.206] showed an LD50 at 48 h in the data set “in vivo” (setting [6]) of 310 mg/kg. Besides, the ED50 in data set [1] (setting [7]) came out at 3 mg/kg.

`COc1ccc(S(N)(=O)=O)cc1C(=O)NC[C@@H]1CCCN1CC1CCCCC1` [77 205 (S) (+) (ms)]: the ED50 in data set [5] came to 0.014 mg/kg.

On to `COc1ccc(S(N)(=O)=O)cc1C(=O)NCC1CCCN1Cc1ccc(F)cc1` (stereo not shown) [SL-C.205, N-[(1-p-fluorobenzyl-pyrrolidinyl-2)-methyl]-2-methoxy-5-sulphamoyl-benzamide], for which the “toxicity compared with Sulpiride” value in “in vivo” (than Sulpiride) was “much less toxic”. For the same molecule, the induction of catalepsy entry in data set [3] (up to high doses) was “does not induce catalepsy up to high doses”. The “activity compared with Sulpiride” value in data set [4] (than Sulpiride) is “markedly more active”. The “antagonism to stereotypies induced in rats by apomorphine” value in data set [1] is reported as “powerful antagonistic agent”.

Regarding `COc1ccc(S(N)(=O)=O)cc1C(=O)NCC1CCCN1Cc1cccc(F)c1` (stereo not shown) [SL-D.193 (cl), N-[(1-m-fluorobenzyl-pyrrolidinyl-2)-methyl]-2-methoxy-5-sulphamoyl-benzamide], the 50% lethal dose (LD50) at 48 h in “in vivo” (setting [6]) was greater than 2000 mg/kg. The ED40 in data set [2] amounted to 30 mg/kg. The ED50 in data set [1] (setting [7]) is 150 mg/kg.

`COc1ccc(S(N)(=O)=O)cc1C(=O)NCC1CCCN1CCC#N` (stereo not shown) [Sl-C.262 (cl), N-[1-(2-cyanoethyl)-pyrrolidinyl-2-methyl]-2-methoxy-5-sulphamoyl-benzamide] had a 50% lethal dose (LD50) at 48 h in the data set “in vivo” (setting [6]) greater than 2000 mg/kg.

In “in vivo” (setting [6]), `C#CCN1CCCC1CNC(=O)c1cc(S(N)(=O)=O)ccc1OC` (stereo not shown) [SL-C.299 (cl)] registered an LD50 at 48 h of 170 mg/kg. In data set [3], this molecule showed a TD50 greater than 150 mg/kg. Also, in data set [1] (setting [7]), the ED50 came to 80 mg/kg.

In data set [3], `COc1ccc(S(N)(=O)=O)cc1C(=O)NCC1CCCN1Cc1cccc(Cl)c1` (stereo not shown) [SL-C.193 (cl)] yielded a TD50 greater than 300 mg/kg.

For `COc1ccc(S(N)(=O)=O)cc1C(=O)NCC1CCCN1C(C)c1ccccc1` (single isomer, unassigned) [SL-D.223 (cl)], the “LD 50 over 48 hours” value in “in vivo” (mouse, in vivo, ip, 2880 min) was 650 mg/kg.

Regarding `COc1ccc(S(N)(=O)=O)cc1C(=O)NCC1CCCN1CC=Cc1ccc(F)cc1` (stereo not shown) [SL-D.194 (cl)], the LD50 at 48 h in “in vivo” (setting [6]) was greater than 2000 mg/kg.

On to `COc1ccc(S(N)(=O)=O)cc1C(=O)NCC1CCCN1Cc1ccc(F)cc1` (single isomer, unassigned) [SL-C.205 1 (ms), N-[(1-p-fluorobenzyl-pyrrolidinyl-2)-methyl]-2-methoxy-5-sulphamoyl-benzamide], for which the LD50 at 48 h in the data set “in vivo” (mouse, in vivo, iv, mice) turned out to be 160 mg/kg. In addition, in data set [4] (in vivo), the “activity in neuro-pharmacological tests” value was “practically inactive”. The ED40 in data set [2] was greater than 30 mg/kg. For the same molecule, the “Antagonism to stereotypies induced … AD 50” value in data set [1] (setting [9]) was greater than 150 mg/kg.

`COc1ccc(S(N)(=O)=O)cc1C(=O)NCC1CCCN1CC1CC1` (racemic) [SL-C.036 (racemic) (cl), N-[(1-cyclopropylmethyl-pyrrolidinyl-2)-methyl]-2-methoxy-5-sulphamoyl-benzamide] yielded a 50% lethal dose (LD50) at 48 h in the data set “in vivo” (setting [6]) of 400 mg/kg. Moreover, the ED50 in data set [5] was determined as 0.037 mg/kg; in data set [1] (setting [7]) it was 15 mg/kg.

On to `COc1ccc(S(N)(=O)=O)cc1C(=O)NC[C@@H]1CCCN1CC1CC1` [77.075 (S) (+) (ms), N-[(1-cyclopropylmethyl-pyrrolidinyl-2)-methyl]-2-methoxy-5-sulphamoyl-benzamide], for which the LD50 at 48 h in the data set “in vivo” (setting [6]) worked out at 350 mg/kg. In data set [1] (setting [7]), the ED50 is 4 mg/kg.

Consider `COc1ccc(S(N)(=O)=O)cc1C(=O)NCC1CCCN1C(C)c1ccccc1` (single isomer, unassigned) [SL-D.222 (cl), 1(-)-N-[(1-α-methylbenzyl-pyrrolidinyl-2-)-methyl]-2-methoxy-5-sulphamoyl-benzamide], for which the LD50 at 48 h in the data set “in vivo” (setting [6]) stood at 625 mg/kg.

Molecule `COc1ccc(S(N)(=O)=O)cc1C(=O)NCC1CCCN1Cc1ccc(F)cc1` (racemic) [SL-C.205 (racemic) (ms), N-[(1-p-fluorobenzyl-pyrrolidinyl-2)-methyl]-2-methoxy-5-sulphamoyl-benzamide] displayed a 50% lethal dose (LD50) at 48 h in “in vivo” (mouse, in vivo, iv, mice) of 190 mg/kg. For the same molecule, the ED40 in data set [2] worked out at 60 mg/kg. The “Antagonism to stereotypies induced … AD 50” value in data set [1] (hydrochlorides in weight of base, * = no activity was observed up to this dose, racemic (ms)) stood at 75 mg/kg.

In the data set “in vivo” (setting [6]), `COc1ccc(S(=O)(=O)N(C)C)cc1C(=O)NCC1CCCN1CC1CC1` (stereo not shown) [77.149] showed a 50% lethal dose (LD50) at 48 h of 240 mg/kg. Moreover, the ED50 in data set [5] was determined as 0.04 mg/kg; in data set [1] (setting [7]), 3 mg/kg.

The term LD50 denotes the dose expected to kill half of the subjects tested.
